We go through one molecule from patent publication US20230151049A1, “Compounds Useful in HIV Therapy” (priority 2020, published 2023).

The nature of the series: in vivo. The settings on record: single IM Example 20A 57 mg/kg. A digest of the protocol: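 Three male Wistar Han rats (200-250 g), not fasted, received a single intramuscular gastrocnemius injection of prodrug suspension at 20 mg/kg EFdA equivalent. Tail-vein blood was taken into NaF/Na2EDTA, mixed 1:1 with 100 mM ammonium acetate pH 4, frozen, and analysed by LC-MS/MS.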

In the case of `C#C[C@]1(COP(=O)(N[C@@H](Cc2ccccc2)C(=O)OCCCCCCCCCCCCCCCCC)Oc2ccccc2)O[C@@H](n2cnc3c(N)nc(F)nc32)C[C@@H]1O` (single isomer, unassigned) [Example 20A], the “Mean concentration of EFdA” value is “BQL (BQL = below quantification limit, 0.3 ng/mL for Example 20A and 0.1-0.3 ng/mL for EFdA)” (day 77); “BQL (BQL = below quantification limit, 0.3 ng/mL for Example 20A and 0.1-0.3 ng/mL for EFdA)” (day 84). Besides, the concentration at 1 day (male, Wistar Han, rat, in vivo, day 1, read-out: Mean concentration of Example 20A) was determined as 15.3 ng/mL. Moreover, for the setting “male, Wistar Han, rat, in vivo, day 7, read-out: Mean concentration of Example 20A”, the concentration at 7 day came to 14.6 ng/mL. For the setting “male, Wistar Han, rat, in vivo, day 14, read-out: Mean concentration of Example 20A”, the concentration at 14 day is 13.8 ng/mL. The concentration at 21 day (male, Wistar Han, rat, in vivo, day 21, read-out: Mean concentration of Example 20A) was determined as 9.76 ng/mL. Further, the concentration at 28 day (male, Wistar Han, rat, in vivo, day 28, read-out: Mean concentration of Example 20A) came to 8.45 ng/mL. Moreover, under “male, Wistar Han, rat, in vivo, day 35, read-out: Mean concentration of Example 20A”, the concentration at 35 day is 13.3 ng/mL. The concentration at 42 day (male, Wistar Han, rat, in vivo, day 42, read-out: Mean concentration of Example 20A) came to 5.27 ng/mL. The concentration at 49 day (male, Wistar Han, rat, in vivo, day 49, read-out: Mean concentration of Example 20A) was determined as 4.25 ng/mL. Moreover, the concentration at 56 day (male, Wistar Han, rat, in vivo, day 56, read-out: Mean concentration of Example 20A) was determined as 3.2 ng/mL. Further, the concentration at 63 day (male, Wistar Han, rat, in vivo, day 63, read-out: Mean concentration of Example 20A) came out at 4.84 ng/mL. Also, the concentration at 70 day (male, Wistar Han, rat, in vivo, day 70, read-out: Mean concentration of Example 20A) amounted to 2.74 ng/mL. The concentration at 77 day (male, Wistar Han, rat, in vivo, day 77, read-out: Mean concentration of Example 20A) was determined as 4 ng/mL. Further, the concentration at 84 day (male, Wistar Han, rat, in vivo, day 84, read-out: Mean concentration of Example 20A) stood at 3.32 ng/mL.
